Reference: patent US4267184A, “Antiinflammatory 4,5-diaryl-2-(substituted-thio)pyrroles and their corresponding sulfoxides and sulfones” (E. I. Du Pont de Nemours and Company, priority 1980, dated 1981)

Key:
[1] = test system: Adjuvant-Induced Arthritis in Rats; assay: Established Adjuvant-Induced Arthritis in Rats; format: in vivo, Charles River Lewis male rats; conditions: for ED50: 168 h, oral gavage daily for 7 days, ED50% decrease from control paw volume
Description: A procedure for detecting and comparing the antiinflammatory activity of compounds in this series and standard drugs for which there is a good correlation with human efficacy is the adjuvant-induced arthritis test in rats.
(§1) The test procedures employed for determining antiinflammatory and analgesic activity are described below with test data included in Tables VII and VIII.
Charles River Lewis male rats (130-150 grams) are injected subcutaneously in plantar area of the right hind paw with 0.1 ml of adjuvant (Difco heat-killed, lyophilized Mycobacterium butyricum suspended in mineral oil 5 mg/ml). 20 Non-arthritic controls are injected with mineral oil. The animals are held for 2 weeks to allow development of arthritis. Paw volumes (uninjected, left hind paw) are measured and the adjuvant injected rats are culled and distributed to treatment groups of 10 of equal disease severity. Non-arthritic controls are distributed to 2 groups of 10. The rats are given oral doses of compound or PVA-Acacia (Polyvinyl Alcohol 1%, Gum Acacia, U.S.P. 5%, Methylparaben 0.5%) (10 ml/kg) by gavage on that day and on the 6 following days. One day after the last dose the paw volumes (uninjected, left hind paw) are measured using a Ugo Basile Volume Differential Meter Model 7101. [formula]
Dose-response regression lines of the % decrease are plotted on semi-log paper by visual fit and the ED50% decrease from control paw volume is determined by inspection.

[2] = test system: phenylquinone writhing in mice; assay: Phenylquinone Writhing Test (analgesic activity); format: in vivo, female white mice; conditions: Mus musculus, oral, phenylquinone i.p., effective analgesic dose for 50% of the mice
Excerpt: A procedure for detecting and comparing the analgesic activity of compounds in this series and standard drugs for which there is a good correlation with human efficacy is the phenylquinone writhing test.
as §1
The phenylquinone writhing test, modified from Siegmund, et al., Proc. Soc. Exp. Biol. Med. 95, 729 (1957), was employed. A test compound suspended in 1% methylcellulose was given orally to fasted (17-21 hours) female white mice, 5-20 animals per double blind test. Aqueous (0.01% phenyl-p-benzoquinone) phenylquinone was injected intraperitoneally at 24 minutes later using 0.20 ml per mouse. […] The effective analgesic dose for 50% of the mice (ED50) was calculated by the moving average method of Thompson, W. R., Bact. Rev. 11, 115-145 (1947).

[3] = Rattus norvegicus, Table VII, oral, read-out: percent reduction in paw volume at the indicated dose
[4] = Table VIII, oral, dose 27 (unit not given)

Row | SMILES | ED50 ([2]; Table VII) [mg/kg] | ED50 ([1]; Rattus norvegicus, Table VII) [mg/kg] | ED50 ([1]; Rattus norvegicus, Table VIII) [mg/kg] | ED50 ([2]; Table VIII) [mg/kg] | other results
1 | FC(F)(F)Sc1cc(-c2ccccc2)c(-c2ccccc2)[nH]1 [Example 1, 4,5-Diphenyl-2-(trifluoromethylthio)pyrrole] | > 135 |  |  |  | inhibition in vivo at 25 mg/kg ([1]; Rattus norvegicus, Table VII, oral, dose 25 mg/kg, read-out: percent reduction in paw volume at the indicated dose): 36%
2 | COc1ccc(-c2cc(SC(F)(F)F)[nH]c2-c2ccc(OC)cc2)cc1 [Example 2, 4,5-Bis(4-methoxyphenyl)-2-(trifluoromethylthio)pyrrole] | 30 | 1.7 |  |  | 
3 | Fc1ccc(-c2cc(SC(F)(F)F)[nH]c2-c2ccc(F)cc2)cc1 [Example 3, 4,5-bis(4-fluorophenyl)-2-(trifluoromethylthio)pyrrole] | > 135 | 1.5 |  |  | 
4 | FC(F)(F)Sc1cc(-c2ccc(Cl)cc2)c(-c2ccc(Cl)cc2)[nH]1 [Example 4] | > 130 | 2.8 |  |  | 
5 | CCOc1ccc(-c2[nH]c(SC(F)(F)F)cc2-c2ccc(F)cc2)cc1 [Example 5] | > 130 |  |  |  | inhibition in vivo at 27 mg/kg [1, 3]: 19%
6 | Fc1ccc(-c2[nH]c(SC(F)(F)F)cc2-c2ccc(Cl)cc2)cc1 [Example 6] | > 108 | 2 |  |  | 
7 | Fc1ccc(-c2cc(SC(F)(F)F)[nH]c2-c2ccc(Cl)cc2)cc1 [Example 7] | > 108 | 1.1 |  |  | 
8 | COc1ccc(-c2[nH]c(SC(F)(F)F)cc2-c2ccc(F)cc2)cc1 [Example 8] | 26 | 30 |  |  | 
9 | COc1ccc(-c2[nH]c(SC(F)(F)F)cc2-c2ccc(Cl)cc2)cc1 [Example 9] | > 108 | 6 |  |  | 
10 | Fc1ccc(-c2cc(SC(F)(F)F)[nH]c2-c2ccccc2)cc1 [Example 10] | > 108 |  |  |  | inhibition in vivo at 27 mg/kg [1, 3]: 22%
11 | FC(F)(F)Sc1cc(-c2ccc(Cl)cc2)c(-c2ccccc2)[nH]1 [Example 11] | > 108 | 25 |  |  | 
12 | Cc1ccc(-c2cc(SC(F)(F)F)[nH]c2-c2ccc(C)cc2)cc1 [Example 12] | 16.2 | 25 |  |  | 
13 | Fc1cccc(-c2cc(SC(F)(F)F)[nH]c2-c2cccc(F)c2)c1 [Example 13] | > 108 |  |  |  | inhibition in vivo at 27 mg/kg [1, 3]: 33%
14 | Cc1c(SC(F)(F)F)[nH]c(-c2ccccc2)c1-c1ccccc1 [Example 15] |  |  | 7.5 | > 108 | 
15 | FC(F)(F)Sc1cc(-c2ccccc2)c(-c2ccc(Cl)c(Cl)c2)[nH]1 [Example 16] | > 108 | 2.5 |  |  | 
16 | FC(F)(F)Sc1cc(-c2ccccc2)c(-c2cccnc2)[nH]1 [Example 17] |  |  | 1.4 | > 108 | 
17 | COc1ccc(-c2cc(SC(F)(F)F)[nH]c2-c2cccs2)cc1 [Example 18] |  |  | ~100 | 78 | 
18 | Fc1ccccc1-c1cc(SC(F)(F)F)[nH]c1-c1ccccc1F [Example 19] |  |  |  | > 108 | Adjuvant Arthritis, value in parenthesis (percent reduction in paw volume/dose) ([1]; Table VIII, oral, dose 45 (unit not given)): 29%
19 | COc1ccc(-c2[nH]c(SC(F)(F)F)cc2-c2ccccc2)cc1 [Example 20] |  |  |  | 22 | Adjuvant Arthritis, value in parenthesis (percent reduction in paw volume/dose) [1, 4]: 44%
20 | Fc1ccc(-c2cc(SC(F)(F)F)[nH]c2-c2ccc(Br)cc2)cc1 [Example 21] |  |  | 3.5 | > 108 | 
21 | CN(C)c1ccc(-c2[nH]c(SC(F)(F)F)cc2-c2ccc(F)cc2)cc1 [Example 22] |  |  | 8.8 | > 108 | 
22 | Fc1ccc(-c2[nH]c(SC(F)(F)F)cc2-c2ccccc2)cc1 [Example 23] |  |  |  | > 108 | Adjuvant Arthritis, value in parenthesis (percent reduction in paw volume/dose) [1, 4]: 27%
23 | FC(F)(F)Sc1cc(-c2ccccc2)c(-c2ccc(Cl)cc2)[nH]1 [Example 24] |  |  | 10 | > 135 | 
24 | FC(F)(F)Sc1cc(-c2cccc(Cl)c2)c(-c2cccc(Cl)c2)[nH]1 [Example 25] |  |  | 25 | > 108 | 
25 | CSc1ccc(-c2[nH]c(SC(F)(F)F)cc2-c2ccc(F)cc2)cc1 [Example 26] |  |  | 0.6 | > 108 | 
26 | Fc1ccc(-c2cc(SC(F)(F)F)[nH]c2-c2cccs2)cc1 [Example 27] |  |  | ~27 | > 108 | 
27 | Fc1ccc(-c2cc(SC(F)(F)F)[nH]c2-c2cccnc2)cc1 [Example 28] |  |  | 0.04 | > 135 | 
